How the values were obtained:
[1] = test system: bleomycin-induced lung fibrosis; experiment: Bleomycin-induced lung fibrosis model in mice; format: in vivo; settings: acute setting (3 day)
Excerpt: Female C57Bl/6 mice (Harlan, 25-30 g) are housed 4 per cage, given free access to food and water and allowed to acclimate for at least 7 days prior to test initiation. After the habituation phase, mice are lightly anesthetized with isoflurane (5% in 100% O2) and administered with bleomycin sulfate (0.01-5 U/kg, Henry Schein) via intratracheal instillation (Cuzzocrea, S. et al., Am. J. Physiol. Lung. Cell. Mol. Physiol., 292(5):[…]-[…] (Epub Jan. 12, 2007)). Mice are returned to their cages and monitored daily for the duration of the experiment. Test compound or vehicle is delivered p.o., i.p. or s.c. daily. The route and frequency of dosing is based on previously determined pharmacokinetic properties. […] BALF is analyzed for concentrations of inflammatory, pro-fibrotic and tissue injury biomarkers including transforming growth factor 131, hyaluronic acid, tissue inhibitor of metalloproteinase-1, matrix matelloproteinase-7, connective tissue growth factor and lactate dehydrogenase activity, using commercially available ELISA. […] Total cell counts are then obtained using a HEMAVET® hematology system (Drew Scientific, Wayne, Pa.) and differential cells counts are determined using Shandon cytospin (Thermo Scientific, Waltham, Mass.). […] The data are plotted using GraphPad Prism and statistical differences between groups determined.

human LPA1 = target: T1, human LPA1 (Homo sapiens, UniProt Q92633); experiment: LPA1 calcium flux assay (HLPA1 Ca Flux); format: cell-based; settings: CHO cells expressing human LPA1, stimulated with 10 nM LPA
T1 construct: the full-length cDNA for human LPA1 was obtained by PCR of the reverse transcription reaction; expressed in transfected cells
Protocol: A 1.1 kb cDNA encoding the human LPA1 receptor was cloned from human lung. Human lung RNA (Clontech Laboratories, Inc. USA) was reverse transcribed using the RETROSCRIPT® kit (Ambion, Inc.) and the full-length cDNA for human LPA1 was obtained by PCR of the reverse transcription reaction. The nucleotide sequence of the cloned human LPA1 was determined by sequencing and confirmed to be identical to the published human LPA1 sequence (An et al., Biochem. Biophys. Res. Commun., 231:619 (1997). The cDNA was cloned into the pcDNA5/FRT expression plasmid and transfected in CHO cells using Lipofectamine 2000 (Invitrogen Corp., USA). Clones stably expressing human LPA1 were selected using hygromycin and identified as cells that show Ca-influx in response to LPA.
Human LPA1 or LPA3 expressing CHO cells are seeded at 20,000-45,000 cells per well in a 96-well poly-D-lysine coated plate one or two days before the assay. Prior to the assay, the cells are washed once with PBS and then cultured in serum-free media overnight. […] Cells are the stimulated by the addition of 10 nM LPA and intracellular Ca^2+ measured using the FLEXSTATION® 3 (Molecular Devices). IC50s are determined using GraphPad prism analysis of drug titration curves.

[2] = test system: highly peritoneal metastatic pancreatic cancer cell line; settings: cited from earlier work
renal fibrosis = settings: compared with LPA1 (−/−) mice; cited from earlier work
[3] = test system: A2058 human melanoma cells; experiment: LPA1 chemotaxis assay; format: cell-based; settings: LPA 100 nM, read-out: IC50, inhibition of LPA-driven chemotaxis
Protocol: Chemotaxis of the A2058 human melanoma cells was measured using the Neuroprobe CHEMOTX® System plates ([…], 5.7 mm diameter sites). The filter sites were coated with 0.001% fibronectin (Sigma) in 20 mM Hepes, pH 7.4 and allowed to dry. A2058 cells were serum-starved for 24 hours, then harvested with Cell Stripper and resuspended in DMEM containing 0.1% fatty-acid-free bovine serum albumin (BSA) to a concentration of 1×10^6/ml. Cells were mixed with an equal volume of test compound (2×) in DMEM containing 0.1% fatty-acid-free BSA and incubated at 37° C. for 15 minutes. LPA (100 nM in DMEM containing 0.1% fatty-acid-free BSA) or vehicle was added to each well of the lower chamber and 50 μl of the cell suspension/test compound mix was applied to the upper portion of the CHEMOTX® plate. Plates were incubated at 37° C. for three hours and then the cells removed from the upper portion by rinsing with PBS and scraping. The filter was dried then stained with HEMA 3® Staining System (Fisher Scientific). The absorbance of the filter was read at 590 nm and IC50s were determined using SYMYX® Assay Explorer.

T1 sequence (Q92633 whole entry): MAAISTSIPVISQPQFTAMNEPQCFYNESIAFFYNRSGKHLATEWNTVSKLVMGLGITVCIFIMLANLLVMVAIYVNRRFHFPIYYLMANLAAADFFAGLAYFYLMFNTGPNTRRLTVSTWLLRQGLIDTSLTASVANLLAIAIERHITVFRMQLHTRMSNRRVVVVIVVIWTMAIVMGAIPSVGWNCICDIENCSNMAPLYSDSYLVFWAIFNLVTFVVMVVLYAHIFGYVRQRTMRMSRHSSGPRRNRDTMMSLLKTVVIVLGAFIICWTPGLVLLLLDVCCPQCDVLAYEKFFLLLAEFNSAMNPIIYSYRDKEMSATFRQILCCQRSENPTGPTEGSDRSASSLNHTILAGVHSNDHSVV

Row | SMILES | IC50 [3] | further results
1 | Cc1noc(-c2ccc(-c3ccc(C4(C(=O)O)CC4)cc3)cc2)c1C(O)c1cn(Cc2ccccc2)nn1 (single isomer, unassigned) [Compound 19, 1-(4′-{4-[(1-Benzyl-1H-[1,2,3]triazol-4-yl)-hydroxy-methyl]-3-methyl-isoxazol-5-yl}-biphenyl-4-yl)-cyclopropanecarboxylic acid] |  | collagen concentration in broncheoalveolar lavage fluid (BALF) [1]: significantly reduced; total protein concentration in broncheoalveolar lavage fluid (BALF) [1]: significantly reduced
2 | Cc1noc(-c2ccc(-c3ccc(C4(C(=O)O)CC4)cc3)cc2)c1Nc1cccc(-c2cccc(C(F)(F)F)c2Cl)n1 [Compound 84, 1-(4′-{4-[6-(2-Chloro-3-trifluoromethyl-phenyl)-pyridin-2-ylamino]-3-methyl-isoxazol-5-yl}-biphenyl-4-yl)-cyclopropanecarboxylic acid] |  | IC50 (human LPA1): 300 to 1000 nM
3 | Cc1noc(-c2ccc(CSCCC(=O)O)cc2)c1NC(=O)OC(C)c1ccccc1Cl (stereo not shown) [Ki16425] |  | LPA-induced and ascites-induced invasion activity [2]: blocked; development of renal fibrosis in UUO mice (renal fibrosis): closely resembled the LPA1 (−/−) mice
4 | Cc1noc(-c2ccc(-c3ccc(C4(C(=O)O)CC4)cc3)cc2)c1Nc1cccc(Cc2ccccc2F)n1 [Compound 45, 1-(4′-{4-[6-(2-Fluoro-benzyl)-pyridin-2-ylamino]-3-methyl-isoxazol-5-yl}-biphenyl-4-yl)-cyclopropanecarboxylic acid] | < 100 nM | 
5 | Cc1noc(-c2ccc(-c3ccc(C4(C(=O)O)CC4)cc3)cc2)c1Nc1cccc(Cc2ccccc2)n1 [Compound 38, 1-{4′-[4-(6-Benzyl-pyridin-2-ylamino)-3-methyl-isoxazol-5-yl]-biphenyl-4-yl}-cyclopropanecarboxylic acid] | < 100 nM | 
6 | Cc1noc(-c2ccc(-c3ccc(C4(C(=O)O)CC4)cc3)cc2)c1Nc1cncc(-c2ccccc2)c1 [Compound 58, 1-{4′-[3-Methyl-4-(5-phenyl-pyridin-3-ylamino)-isoxazol-5-yl]-biphenyl-4-yl}-cyclopropanecarboxylic acid] | < 100 nM | 
7 | Cc1noc(-c2ccc(-c3ccc(C4(C(=O)O)CC4)cc3)cc2)c1Nc1cncc(-c2ccccc2Cl)c1 [Compound 64, 1-(4′-{4-[5-(2-Chloro-phenyl)-pyridin-3-ylamino]-3-methyl-isoxazol-5-yl}-biphenyl-4-yl)-cyclopropanecarboxylic acid] | < 100 nM | 
8 | Cc1noc(-c2ccc(-c3ccc(C4(C(=O)O)CC4)cc3)cc2)c1Nc1cc(-c2ccccc2)ccn1 [Compound 67, 1-{4′-[3-Methyl-4-(4-phenyl-pyridin-2-ylamino)-isoxazol-5-yl]-biphenyl-4-yl}-cyclopropanecarboxylic acid] | < 100 nM | 

Further lines, with some results ahead:

Row | IC50 [3] | SMILES | further results
9 | < 100 nM | Cc1noc(-c2ccc(-c3ccc(C4(C(=O)NS(C)(=O)=O)CC4)cc3)cc2)c1C(O)c1nnc(Cc2ccccc2)o1 (single isomer, unassigned) [Compound 92, N-[1-(4′-{4-[(5-Benzyl-[1,3,4]oxadiazol-2-yl)-hydroxy-methyl]-3-methyl-isoxazol-5-yl}-biphenyl-4-yl)-cyclopropanecarbonyl]-methanesulfonamide] | 
10 | < 100 nM | Cc1noc(-c2ccc(-c3ccc(C4(C(=O)O)CC4)cc3)cc2)c1C(O)c1nnc(Cc2ccccc2)o1 (stereo not shown) [Compound 13, 1-(4′-{4-[(5-Benzyl-[1,3,4]oxadiazol-2-yl)-hydroxy-methyl]-3-methyl-isoxazol-5-yl}-biphenyl-4-yl)-cyclopropanecarboxylic acid] | 
11 | < 100 nM | Cc1noc(-c2ccc(-c3ccc(C4(C(=O)O)CC4)cc3)cc2)c1[C@@H](O)c1cn([C@H](C)c2ccccc2)nn1 [Compound 32, 1-[4′-(4-{(R)-Hydroxy-[1-((R)-1-phenyl-ethyl)-1H-[1,2,3]triazol-4-yl]-methyl}-3-methyl-isoxazol-5-yl)-biphenyl-4-yl]-cyclopropanecarboxylic acid] | 
